For the assay, the target named is AKT-1 (Homo sapiens, UniProt P31749). Kind of assay: AKT kinase inhibition assay: Dowex technique (AKT1, Aktide substrate). It is filed as biochemical. The note with it: AKT1 5 nM, Aktide 30 μM, ATP 132 μM, 60 min rt. The text has this:
Method for AKT Kinase Inhibition Assay: Dowex Technique
General Principle for Kinase Inhibition Assays
Specific peptide or protein substrates are trans-phosphorylated by their specific serine -threonine or tyrosine kinase, in the presence of ATP traced with ^33Pγ-ATP, and in the presence of their own optimal buffer and cofactors.
At the end of the phosphorylation reaction, more than 98% cold ATP and radioactive ATP is captured by an excess of the ion exchange dowex resin; the resin then settles down to the bottom of the reaction plate by gravity.
Supernatant, containing the phosphorylated substrate, is subsequently withdrawn and transferred into a counting plate, then evaluated by β-counting.
• TRIS 50 mM, pH 7.5 • MgCl2 10 mM • DTT 1 mM • NaVO3 […] • BSA 0.2 mg/ml • Assay conditions (final concentrations) for AKT1 • Enzyme concentration (AKT1)=5 nM • Substrate concentration (Aktide, 14 residues peptide, from PRIMM)=30 μM • ATP=132 μM • ^33P-γ-ATP=0.88 nM Robotized Dowex Assay
The “test” mixture consisted of: • 1) 3× Enzyme mix (done in Kinase Buffer 3×), 5 μl/well • 2) 3× substrate and ATP mix (done in DDH2O), together with ^33P-γ-ATP, 5 μl/well • 3) 3× test compounds (diluted into DDH2O-3% DMSO)-5 μl/well Dilution of Compounds
Test compounds are received as 100% DMSO solution at the indicated concentrations: • i—for % inhibition studies, individual dilution plates at 1 mM, 100 μM and 10 μM are prepared in 100% DMSO, then diluted at a 3× concentration (30, 3 and 0.3 μM) in DDH2O, 3% DMSO. A Multimek 96 (Beckman) is used for dilutions and compound pipetting into the test plates • ii—for IC50 determination, compounds are received as 1 mM, 100% DMSO solutions, plated into the first column of a microtiter plate (A1 to G1), 100 μl.
Well H1 is left empty for the internal standard inhibitor, staurosporine.
A Biomek 2000 (Beckman) is used for serial 1:3 dilutions in water, 3% DMSO, from column A1 to A10 and for all the seven compounds in the plate. In a standard experiment, the highest concentration of all compounds is 30 μM, then diluted in the final test mixture down to 10 μM.
384-well plates, V bottom (test plates) are prepared with 5 μl of the compound dilution (3×) and then placed onto a PlateTrak 12 robotized station (Perkin Elmer; the robot has one 384-tips pipetting head for starting the assay plus one 96-tips head for dispensing the resin) together with one reservoir for the Enzyme mix (3×) and one for the ATP mix (3×).
At the start of the run, the robot aspirates 5 μl of ATP mix, makes an air gap inside the tips (3 μl) and aspirates 5 μl of AKT mix. The following dispensation into the plates allows the kinase reaction to start upon 3 cycles of mixing, done by the robot itself.
The robot incubates the plates for 60 minutes at room temperature, and then stops the reaction by pipetting 70 μl of dowex resin suspension into the reaction mix. Three cycles of mixing are done immediately after the addition of the resin.
Another mixing cycle is performed after all the plates are stopped, this time using normal tips: the plates are then allowed to rest for about one hour in order to maximize ATP capture. At this point, 20 μl of the supernatant are transferred into 384-Optiplates (Perkin-Elmer), with 70 μl of Microscint 40 (Perkin-Elmer); after 5 min of orbital shaking the plates are read on a Perkin-Elmer Top Count radioactivity counter.
Data are analysed by an internally customized version of the SW package “Assay Explorer” that provides either % inhibition for primary assays or sigmoidal fittings of the ten-dilutions curves for IC50 determination, for the secondary assays/hit confirmation routines.

Chain of AKT-1 (P31749 whole entry): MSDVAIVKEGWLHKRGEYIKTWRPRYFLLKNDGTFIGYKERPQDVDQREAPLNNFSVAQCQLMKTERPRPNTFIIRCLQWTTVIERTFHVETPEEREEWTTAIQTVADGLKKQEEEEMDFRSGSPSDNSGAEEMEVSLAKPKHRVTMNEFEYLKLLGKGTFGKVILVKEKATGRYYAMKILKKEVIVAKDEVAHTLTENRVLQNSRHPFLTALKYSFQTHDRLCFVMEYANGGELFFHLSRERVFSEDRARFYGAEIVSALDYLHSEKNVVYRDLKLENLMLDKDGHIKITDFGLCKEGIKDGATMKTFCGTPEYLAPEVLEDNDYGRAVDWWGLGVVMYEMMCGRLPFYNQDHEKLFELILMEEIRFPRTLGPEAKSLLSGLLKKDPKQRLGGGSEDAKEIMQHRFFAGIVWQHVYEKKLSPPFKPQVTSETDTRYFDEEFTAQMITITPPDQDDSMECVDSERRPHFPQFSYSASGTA

The term IC50 denotes the point on the concentration scale where inhibition reaches its midpoint. As to `CC(C)(C)OC(=O)NC[C@H](Cc1ccccc1)NC(=O)c1c[nH]c2c1CCc1cnccc1-2` [E11, tert-Butyl {(2S)-2-[(4,5-dihydro-1H-pyrrolo[2,3-f]isoquinolin-3-ylcarbonyl)amino]-3-phenylpropyl}carbamate], the IC50 was under 500 nM.

Source of the values: patent US8207180B2, “Tricyclic indoles and (4,5-dihydro) indoles” (Nerviano Medical Sciences S.R.L., priority 2006, dated 2012).
